The values that follow come from patent US7855300B2, “Bis(trimethylsilyl)phenyl compound or salt thereof, and use thereof” (Taiho Pharmaceutical Co., Ltd., priority 2007, dated 2010).

Series [1] concerns JHH-7 (human hepatocellular carcinoma cell lines). Kind of series: Antitumor effect in JHH-7 orthotopic liver transplantation model. It counts as in vivo, male nude mice (BALB/cA Jcl-nu). To be noted: 16 mg/kg orally once per day for 14 days; tumor weight on 15th day; T/C×100. The procedure: RARα high expression cells, i.e., human hepatocellular carcinoma cell lines JHH-7, were implanted in the outside left lobe of the liver of male nude mice (BALB/cA Jcl-nu; CLEA Japan, Inc.) under Nembutal anesthesia in an amount of 1×10^6 cells (0.02 ml) per mouse. On the 11th to 14th day after implantation, the mice were divided into groups, each consisting of seven mice. The compounds of the present invention and the reference compound TAC-101 were suspended in 0.5% HPMC and 1.6 mg/ml solution was orally administered to the mice at a liquid dose of 10 ml/kg, namely, at a dose of 16 mg/kg, once per day for 14 days. On the 15th day after the start of administration, the mice were exsanguinated to death under ether anesthesia. Tumors formed in the outside left lobe of the liver were extracted, and the tumor weight was measured to assess the antitumor effect. The antitumor effect was evaluated by calculating the tumor growth rate (%) using the following equation. The antitumor effect of each compound was analyzed by Student's test and statistical significance was determined. Tumor growth rate(%)=T/C×100 T: Average tumor weight in the groups administered with the test compounds C: Average tumor weight in the groups not administered with test compounds

The nature of series [2]: Rat toxicity test, oral administration for 4 weeks. It counts as in vivo, male SD rats. Further details: key: +: recognized; −: not observed. The procedure:
The compounds of the present invention and the reference compound TAC-101 were orally administered to male SD rats (CLEA Japan, Inc.) for 4 weeks. The dosage of each compound was 6 mg/kg or 24 mg/kg per rat. Differences in toxic symptoms were compared and studied.

In series [3] the test system is Human prostatic carcinoma cell lines TSU-Pr1. Kind of series: Cancer malignancy-reducing effect (tumorigenicity of pretreated TSU-Pr1 cells implanted in nude mice). To be noted: cells treated 72 hours, six subcutaneous sites, 26th day after implantation. It counts as in vivo, male nude mice (BALB/cA Jcl-nu). The procedure:
Human prostatic carcinoma cell lines TSU-Pr1 were treated with Compound 3 of the present invention and the reference compound TAC-101 for 72 hours. The cells were subcutaneously implanted into male nude mice (BALB/cA Jcl-nu; CLEA Japan, Inc.) at six sites in total per mouse. On the 26th day after implantation, the rate of subcutaneous tumor formation was observed and the effect of reducing cancer malignancy was evaluated. Statistical significance was analyzed by Wilcoxon test.

For series [4], the system named is non-small cell lung cancer. The following applies: phase I study, Non-Patent Document 5; cited from earlier work.
For series [5], the system named is Human prostatic carcinoma cell lines TSU-Pr1. Kind of series: Growth inhibitory and differentiation-inducing effect on prostate cancer cells. In kind it is cell-based. The following applies: 10 μM, IGF-I 10 ng/ml; for Change in cell shape (differentiation-inducing activity): after three days, FIG. 4; for Cytostatic activity (crystal violet staining): 7th day after culturing, FIG. 5. The method, then: Human prostatic carcinoma cell lines TSU-Pr1 prepared in RPMI1640 culture medium containing 2% fetal bovine serum were plated into a 24-well culture plate at a cell density of 3×10^3 cells per well. The next day, IGF-I (10 ng/ml) was added as a growth factor, and the cells were treated with Compounds 2 and 3 of the present invention and the reference compound TAC-101 each in an amount of 10 μM. Change in cell shape after three days was observed. Moreover, on the 7th day after culturing, the cells were fixed with 25% glutaraldehyde solution. Cytostatic activity was determined by the crystal violet staining method, and the statistical significance of the cytostatic activity was analyzed by Student's test. […] In the Control group that was not treated with medicine, a cobblestone-like shape and vigorous cell division were observed. Such cell shape is characteristic of epithelioid cancer cells.

With `C[Si](C)(C)c1cc(C(=O)Nc2ccc(C(=O)O)cc2)cc([Si](C)(C)C)c1` [TAC-101, 4-[3,5-bis(trimethylsilyl)benzamido]benzoic acid, reference compound], the “Tumor Growth Rate (%)” value in series [1] was determined as 52%. Besides, in series [2] (6 mg/kg), the “Alopecia Symptom” value is given as “+” and the “Endocortical Proliferation” value is reported as “−”. For the same compound, in series [2] (24 mg/kg), the “Alopecia Symptom” value is recorded as “+” and the “Endocortical Proliferation” value is “+”. Moreover, in series [3], the “Graft Survival (%)” value is 67% and the “Tumor Formation” value is listed as 4/6. In addition, in series [4], the Clinical response result is recorded as “complete remission cases were reported” and the Side effects entry is reported as “symptoms (skin disorders) similar to hypervitaminosis A were observed”. Besides, in series [5], the “Change in cell shape (differentiation-inducing activity)” value was “no significant change was recognized in the shape”.
On to `C/C(=C\C(=O)O)c1ccc(NC(=O)c2cc([Si](C)(C)C)cc([Si](C)(C)C)c2)cc1` [Compound 6, (E)-3-[4-[[3,5-Bis(trimethylsilyl)benzoyl]amino]phenyl]-2-butenoic acid], for which, in series [1], the “Tumor Growth Rate (%)” value came to 31%.
Take `C[Si](C)(C)c1cc(C(=O)Nc2ccc(/C=C/C(=O)O)c(F)c2)cc([Si](C)(C)C)c1` [Compound 2, 4-[[3,5-Bis(trimethylsilyl)benzoyl]amino]-2-fluorocinnamic acid]: the “Tumor Growth Rate (%)” value in series [1] is reported as 21%. Further, in series [2] (6 mg/kg), the “Alopecia Symptom” value is “−” and the “Endocortical Proliferation” value was “−”. Also, in series [2] (24 mg/kg), the “Alopecia Symptom” value is given as “−” and the “Endocortical Proliferation” value was “−”. Further, in series [5], the “Cytostatic activity (crystal violet staining)” value was “dramatic cytostatic effect was recognized” and the “Change in cell shape (differentiation-inducing activity)” value is “dramatic change was recognized in the shape of neuroid cells”.
In the case of `C[Si](C)(C)c1cc(C(=O)Nc2ccc(/C=C/C(=O)O)cc2)cc([Si](C)(C)C)c1` [Compound 3, 4-[[3,5-Bis(trimethylsilyl)benzoyl]amino]cinnamic acid], the “Tumor Growth Rate (%)” value in series [1] is reported as 25%. In series [2] (6 mg/kg), the “Alopecia Symptom” value is reported as “−” and the “Endocortical Proliferation” value is reported as “−”. For the same compound, in series [2] (24 mg/kg), the “Alopecia Symptom” value was “−” and the “Endocortical Proliferation” value is “−”. Further, in series [3], the “Graft Survival (%)” value stood at 17% and the “Tumor Formation” value is reported as 1/6. Further, in series [5], the “Cytostatic activity (crystal violet staining)” value is “dramatic cytostatic effect was recognized” and the “Change in cell shape (differentiation-inducing activity)” value was “dramatic change was recognized in the shape of neuroid cells”.
For the compound `C[Si](C)(C)c1cc(C(=O)Nc2ccc(/C=C/C(=O)O)cn2)cc([Si](C)(C)C)c1`, the melting point is 302 °C (dec.).
Regarding `C/C(=C\c1ccc(NC(=O)c2cc([Si](C)(C)C)cc([Si](C)(C)C)c2)cc1F)C(=O)O` [Compound 14, (E)-3-[4-[[3,5-Bis(trimethylsilyl)benzoyl]amino]-2-fluorophenyl]-2-methylacrylic acid], in series [2] (6 mg/kg), the “Alopecia Symptom” value is listed as “−” and the “Endocortical Proliferation” value was “−”. Moreover, in series [2] (24 mg/kg), the “Alopecia Symptom” value is recorded as “−” and the “Endocortical Proliferation” value is given as “−”.
As for `C/C(=C\C(=O)O)c1ccc(NC(=O)c2cc([Si](C)(C)C)cc([Si](C)(C)C)c2)cc1F` [Compound 11, (E)-3-[4-[[3,5-Bis(trimethylsilyl)benzoyl]amino]-2-fluorophenyl]-2-butenoic acid], the “Tumor Growth Rate (%)” value in series [1] amounted to 36%.

The melting point is the temperature, or range, at which the solid turns liquid.
